PubChem BioAssay AID463182 (University of Pittsburgh Molecular Library Screening Center, 2010)
Active and inactive are the calls of the source. How the calls were made is not given here.

Biological target: Furin (Homo sapiens) (UniProt P09958)
Assay: human furin inhibition, concentration series – biochemical, fluorescence intensity, IC50, dose response (AID 463182)
Settings: purified furin, fluorogenic peptide substrate cleavage

Chain of Furin (Homo sapiens) (P09958 108-714 limits assumed): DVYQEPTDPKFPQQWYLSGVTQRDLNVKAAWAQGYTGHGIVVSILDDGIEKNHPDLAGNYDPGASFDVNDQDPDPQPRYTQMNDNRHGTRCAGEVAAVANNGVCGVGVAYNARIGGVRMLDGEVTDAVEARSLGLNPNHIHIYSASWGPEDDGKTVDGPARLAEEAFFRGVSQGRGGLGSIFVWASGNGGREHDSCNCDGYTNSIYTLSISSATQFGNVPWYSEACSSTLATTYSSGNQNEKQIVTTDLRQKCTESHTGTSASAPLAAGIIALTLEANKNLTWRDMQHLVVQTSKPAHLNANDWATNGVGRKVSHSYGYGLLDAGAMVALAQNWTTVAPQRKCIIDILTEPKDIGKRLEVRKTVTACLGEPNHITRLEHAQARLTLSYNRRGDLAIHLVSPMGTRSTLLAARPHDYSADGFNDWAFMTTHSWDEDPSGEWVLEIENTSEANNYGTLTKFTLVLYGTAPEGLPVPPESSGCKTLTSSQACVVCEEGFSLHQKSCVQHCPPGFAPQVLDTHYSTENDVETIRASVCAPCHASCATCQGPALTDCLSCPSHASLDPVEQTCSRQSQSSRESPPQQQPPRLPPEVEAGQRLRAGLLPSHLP

IC50 | Compound
> 50 µM (inactive) | CC1(C)CC(=O)C(C=Nc2cccnc2)=C(O)C1
> 50 µM (inactive) | Cc1cccc(/N=C/C2=C(O)CC(C)(C)CC2=O)n1
> 50 µM (inactive) | CC1(C)CC(=O)C(/C=N/n2cnc3ccccc3c2=O)=C(O)C1
